In one assay the target is T1, TNKS2 (Homo sapiens, UniProt Q9H2K2).
T1 construct: purchased BPS Bioscience, San Diego, USA 80572 (TNKS2 Histone Ribosylation Assay Kit)
T1 sequence (Q9H2K2 1-1166): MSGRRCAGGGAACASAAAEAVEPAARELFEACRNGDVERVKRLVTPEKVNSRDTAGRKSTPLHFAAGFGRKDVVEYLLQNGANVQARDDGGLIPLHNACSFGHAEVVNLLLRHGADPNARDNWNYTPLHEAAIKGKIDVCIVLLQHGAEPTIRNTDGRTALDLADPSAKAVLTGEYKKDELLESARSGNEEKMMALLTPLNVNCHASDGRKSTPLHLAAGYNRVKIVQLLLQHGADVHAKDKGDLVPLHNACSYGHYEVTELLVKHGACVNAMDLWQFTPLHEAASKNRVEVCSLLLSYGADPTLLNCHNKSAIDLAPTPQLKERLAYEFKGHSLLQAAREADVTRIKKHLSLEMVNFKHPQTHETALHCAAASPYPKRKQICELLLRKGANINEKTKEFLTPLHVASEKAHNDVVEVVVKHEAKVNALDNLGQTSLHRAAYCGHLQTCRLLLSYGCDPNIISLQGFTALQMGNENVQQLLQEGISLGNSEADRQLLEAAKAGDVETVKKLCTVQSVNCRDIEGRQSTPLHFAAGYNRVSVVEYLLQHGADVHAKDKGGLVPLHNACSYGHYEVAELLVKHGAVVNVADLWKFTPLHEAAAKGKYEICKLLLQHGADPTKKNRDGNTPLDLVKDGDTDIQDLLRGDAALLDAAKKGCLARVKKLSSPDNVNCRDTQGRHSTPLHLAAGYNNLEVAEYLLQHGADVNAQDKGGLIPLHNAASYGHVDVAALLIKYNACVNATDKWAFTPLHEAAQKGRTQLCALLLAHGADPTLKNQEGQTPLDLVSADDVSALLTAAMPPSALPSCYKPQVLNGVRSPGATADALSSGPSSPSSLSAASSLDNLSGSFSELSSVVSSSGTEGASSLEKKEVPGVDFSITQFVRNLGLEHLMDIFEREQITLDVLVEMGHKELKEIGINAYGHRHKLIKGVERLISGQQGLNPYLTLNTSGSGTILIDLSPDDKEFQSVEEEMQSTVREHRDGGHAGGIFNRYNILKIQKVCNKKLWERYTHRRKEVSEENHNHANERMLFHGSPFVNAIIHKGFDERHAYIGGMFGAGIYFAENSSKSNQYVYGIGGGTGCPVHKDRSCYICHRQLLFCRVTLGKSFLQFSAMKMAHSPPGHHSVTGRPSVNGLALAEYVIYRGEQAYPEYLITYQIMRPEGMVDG
Description: TNKS2 Assay B (auto-parsylation, [3H]-NAD+ SPA). In kind it is biochemical. To be noted: 6 nM TNKS2, auto-parsylation, over night at room temperature.

Assay [1] deals with wildtype Wnt signaling cascade. Briefly: HEK293 TOP assay (Super TopFlash luciferase reporter, Wnt-3a stimulated). In kind it is cell-based. Particulars: HEK293 TOP reporter cells, Wnt3a at EC50, 16 hours. The essentials:
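Compound series (50 μM down to 15 nM, 3.16-fold) diluted from DMSO 50-fold into CAFTY buffer, pH 7.4, 2 mM Ca^2+, 0.01% BSA, applied to Wnt-3a-stimulated HEK293 TopFlash and FOP reporter lines in parallel. Cells seeded 10000/well 24 h before; luciferase signal measured.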

Assay [2] deals with HEK293 cells cotransfected with the FOP control vector. Briefly: HEK293 FOP assay (control reporter with non-functional TCF elements). In kind it is cell-based. Particulars: 16 hours. The procedure, abridged:
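Compound series from 50 μM down to 15 nM, prediluted in DMSO then 50-fold into CAFTY buffer (pH 7.4, 2 mM Ca2+, 0.01% BSA), tested alongside TOP cells on a Geneticin-selected HEK293 FOP line whose TCF elements are replaced by a random sequence; recombinant human Wnt-3a applied at 2500-5 ng/ml.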

On to `COCC(C)NC(=O)c1nc[nH]c1C(=O)N[C@H]1CC[C@@]2(CCN(c3ccc(F)cc3Cl)C2=O)CC1` (mixture of isomers) [Example 164, N^5-[(trans)-2-(2-chloro-4-fluorophenyl)-1-oxo-2-azaspiro[4.5]dec-8-yl]-N^4-(1-methoxypropan-2-yl)-1H-imidazole-4,5-dicarboxamide], for which the IC50 at TNKS2 is 28 nM; in assay [1] (Homo sapiens, HEK293, 16 h), 9.2 nM; in assay [2] (Homo sapiens), ≥ 50000 nM.
As to `Cc1c(C(C)N(C)C)cnc2c(C(=O)N[C@H]3CC[C@H](C(=O)Nc4ccc(F)cc4Cl)CC3)cnn12` (single isomer, unassigned) [Example 56, N-{trans-4-[(2-chloro-4-fluorophenyl)carbamoyl]cyclohexyl}-6-[1-(dimethylamino)ethyl]-7-methylpyrazolo[1,5-a]pyrimidine-3-carboxamide], the values for the 50% inhibitory concentration (IC50) (at TNKS2; in assay [1]; in assay [2] (Homo sapiens)) were 370 nM, 990 nM and ≥ 50000 nM, respectively.
In the case of `Cc1c(C(C)N(C)C)cnc2c(C(=O)N[C@H]3CC[C@H](C(=O)Nc4ccc(F)cc4Cl)CC3)cnn12` (single isomer, unassigned) [Example 57, N-{trans-4-[(2-chloro-4-fluorophenyl)carbamoyl]cyclohexyl}-6-[1-(dimethylamino)ethyl]-7-methylpyrazolo[1,5-a]pyrimidine-3-carboxamide], the concentration for half-maximal inhibition (IC50) was 160 nM against TNKS2, 310 nM in assay [1] and ≥ 50000 nM in assay [2].
As to `CNC(=O)c1nc[nH]c1C(=O)N[C@H]1CC[C@H](C(=O)Nc2cc(F)c(F)cc2Cl)CC1` [Example 3, N^5-{trans-4-[(2-chloro-4,5-difluorophenyl)carbamoyl]cyclohexyl}-N^4-methyl-1H-imidazole-4,5-dicarboxamide], the half-maximal inhibitory concentration (IC50) at TNKS2 is 8.1 nM; in assay [1] (Homo sapiens, HEK293, 16 h) it was 13 nM; in assay [2] (Homo sapiens), ≥ 50000 nM.
Take `O=C(NCCN1CCCCC1)c1nc[nH]c1C(=O)N[C@H]1CC[C@H](C(=O)Nc2cc(F)c(F)cc2Cl)CC1` [Example 4, N^5-{trans-4-[(2-chloro-4,5-difluorophenyl)carbamoyl]cyclohexyl}-N^4-[2-(piperidin-1-yl)ethyl]-1H-imidazole-4,5-dicarboxamide]: the IC50 was 2.1 nM on TNKS2; 10 nM in assay [1] (Homo sapiens, HEK293, 16 h); ≥ 50000 nM in assay [2] (Homo sapiens).
Take `CNC(=O)c1nc[nH]c1C(=O)N[C@H]1CC[C@H](C(=O)Nc2cc(OC)c(OC)cc2Cl)CC1` [Example 5, N^5-{trans-4-[(2-chloro-4,5-dimethoxyphenyl)carbamoyl]cyclohexyl}-N^4-methyl-1H-imidazole-4,5-dicarboxamide]: the 50% inhibitory concentration (IC50) against TNKS2 was 110 nM; in assay [1] (Homo sapiens, HEK293, 16 h), 190 nM; in assay [2] (Homo sapiens), ≥ 50000 nM.
Taken in the same sequence, the figures for `CNC(=O)c1nc[nH]c1C(=O)N[C@H]1CC[C@H](C(=O)Nc2c(F)cc(F)cc2Cl)CC1` [Example 6, N^5-{trans-4-[(2-chloro-4,6-difluorophenyl)carbamoyl]cyclohexyl}-N^4-methyl-1H-imidazole-4,5-dicarboxamide] were 60 nM, 55 nM and ≥ 50000 nM.
The like results for `CNC(=O)c1nc[nH]c1C(=O)N[C@H]1CC[C@H](C(=O)Nc2ccc(F)cc2Br)CC1` [Example 7, N^5-{trans-4-[(2-bromo-4-fluorophenyl)carbamoyl]cyclohexyl}-N^4-methyl-1H-imidazole-4,5-dicarboxamide] were, in that order, 27 nM, 30 nM and ≥ 50000 nM.
For the molecule `CNC(=O)c1nc[nH]c1C(=O)N[C@H]1CC[C@H](C(=O)Nc2ccc(F)cc2)CC1` [Example 8, N^5-{trans-4-[(4-fluorophenyl)carbamoyl]cyclohexyl}-N^4-methyl-1H-imidazole-4,5-dicarboxamide], the 50% inhibitory concentration (IC50) on TNKS2 is 2300 nM; in assay [1] (Homo sapiens, HEK293, 16 h) it was 2100 nM; in assay [2] (Homo sapiens), ≥ 50000 nM.
Taken in the same sequence, the figures for `CNC(=O)c1nc[nH]c1C(=O)N[C@H]1CC[C@H](C(=O)Nc2ccc(C)cc2Cl)CC1` [Example 9, N^5-{trans-4-[(2-chloro-4-methylphenyl)carbamoyl]cyclohexyl}-N^4-methyl-1H-imidazole-4,5-dicarboxamide] were 110 nM, 180 nM and ≥ 50000 nM.
As for `CNC(=O)c1[nH]cnc1C(=O)NC1CCC(C(=O)Nc2ccc(F)cc2Cl)CC1OC` (stereo not drawn) [Example 36, N^4-{(1α,2β,4β)-4-[(2-chloro-4-fluorophenyl)carbamoyl]-2-methoxycyclohexyl}-N^5-methyl-1H-imidazole-4,5-dicarboxamide], the half-inhibitory concentration (IC50) against TNKS2 was > 10000 nM; in assay [1] it was 4900 nM; in assay [2] it was ≥ 50000 nM.
As to `CNC(=O)c1[nH]cnc1C(=O)NC1CCC(C(=O)Nc2ccc(F)cc2Cl)CC1OC` (stereo not drawn) [Example 37, N^4-{(1α,2β,4β)-4-[(2-chloro-4-fluorophenyl)carbamoyl]-2-methoxycyclohexyl}-N^5-methyl-1H-imidazole-4,5-dicarboxamide], the IC50 against TNKS2 is > 10000 nM; in assay [1] it was 43000 nM; in assay [2], ≥ 50000 nM.
`O=C(NCCC1CC1)c1nc[nH]c1C(=O)N[C@H]1CC[C@H](C(=O)Nc2cc(N3CCOCC3)ccc2Cl)CC1` [Example 93, N^5-(trans-4-{[2-chloro-5-(morpholin-4-yl)phenyl]carbamoyl}cyclohexyl)-N^4-(2-cyclopropylethyl)-1H-imidazole-4,5-dicarboxamide]: the IC50 came out at 1600 nM against TNKS2; 1500 nM in assay [1] (Homo sapiens, HEK293, 16 h); 12000 nM in assay [2] (Homo sapiens).
The like results for `CC(C)(O)CNC(=O)c1nc[nH]c1C(=O)N[C@H]1CC[C@H](C(=O)Nc2cc(N3CCOCC3)ccc2Cl)CC1` [Example 94, N^5-(trans-4-{[2-chloro-5-(morpholin-4-yl)phenyl]carbamoyl}cyclohexyl)-N^4-(2-hydroxy-2-methylpropyl)-1H-imidazole-4,5-dicarboxamide] were, in that order, 1600 nM, 610 nM and ≥ 50000 nM.
The like results for `O=C(NCC(F)(F)F)c1nc[nH]c1C(=O)N[C@H]1CC[C@H](C(=O)Nc2cc(N3CCOCC3)ccc2Cl)CC1` [Example 95, N^5-(trans-4-{[2-chloro-5-(morpholin-4-yl)phenyl]carbamoyl}cyclohexyl)-N^4-(2,2,2-trifluoroethyl)-1H-imidazole-4,5-dicarboxamide] were, in that order, 4300 nM, 2100 nM and 39000 nM.
Turning to `CNC(=O)c1nc[nH]c1C(=O)N[C@H]1CC[C@H](C(=O)Nc2cnccc2Cl)CC1` [Example 96, N^5-{trans-4-[(4-chloropyridin-3-yl)carbamoyl]cyclohexyl}-N^4-methyl-1H-imidazole-4,5-dicarboxamide], the IC50 on TNKS2 is 28 nM; in assay [1] (Homo sapiens, HEK293, 16 h), 22 nM; in assay [2] (Homo sapiens) it was 18000 nM.
The like results for `O=C(NCC1CCCO1)c1nc[nH]c1C(=O)N[C@H]1CC[C@H](C(=O)Nc2cnccc2Cl)CC1` (stereo partly drawn) [Example 97, N^5-{trans-4-[(4-chloropyridin-3-yl)carbamoyl]cyclohexyl}-N^4-(tetrahydrofuran-2-ylmethyl)-1H-imidazole-4,5-dicarboxamide] were, in that order, 39 nM, 34 nM and 18000 nM.
Taken in the same sequence, the figures for `COC(C)(C)CNC(=O)c1nc[nH]c1C(=O)N[C@H]1CC[C@H](C(=O)Nc2cnccc2Cl)CC1` [Example 98, N^5-{trans-4-[(4-chloropyridin-3-yl)carbamoyl]cyclohexyl}-N^4-(2-methoxy-2-methylpropyl)-1H-imidazole-4,5-dicarboxamide] were 39 nM, 570 nM and ≥ 50000 nM.

Source of the values: patent US20180148418A1, “AMIDO-SUBSTITUTED CYCLOHEXANE DERIVATIVES” (Bayer Pharma Aktiengesellschaft, priority 2015, published 2018).
